Measurements as given in patent publication EP0727207A1, “The pharmacological use of certain cystine derivatives” (priority 1990, dated 1991).

Tested on: Balb/c mice
Test: delayed type hypersensitivity (DTH) reaction in the mouse ear, OXA-sensitized mice
Type: in vivo
Conditions: for Diff Tt24-Tt0: L-forms; for Diff Tt24-Tt0 / Diff. Tt24-Tt0 / Diff Tt48-Tt0: mean; for Diff. Tt24-Tt0: ear thickness 24 hours after challenge; for Diff Tt48-Tt0: ear thickness 48 hours after challenge
Excerpt: The property of the compounds diNAC, diBUT, diVAL, diCAP, diMeNAC, diEtNAC and diMeVAL to stimulate immune responses is illustrated by their efficacy in a model of the delayed type hypersensitivity (DTH) reaction in the mouse.
Both male and female Balb/c mice obtained from Bomholtsgaard (Denmark) and Charlie Rivers (England), were used at the weight of 18-20 gram. 4-ethoxymethylene-2-phenyloxazolone (OXA) was purchased from BDH (England) and served as an antigen in this test.
The mice were sensitized, Day 0, by epicutaneous application of 150 µl absolute ethanol-acetone (3:1) solution containing 3% OXA on the shaved thorax and abdomen. Treatment with the L-form of diNAC, diMeNAC, diEtNAC, diMeVAL, or vehicle (phosphate buffer, pH 7.0) was initiated by oral feeding immediately after sensitization and continued once daily to Day 6. […] after the sensitization both ears of all mice were challenged on both sides by topical application of 20 µl 1% OXA dissolved in peanut oil. Ear thickness was measured prior to and 24 or 48 hours after challenge using an Oditest spring calliper. Challenges and measurements were performed under light pentobarbital anasthesia. The intensity of the DTH reactions was expressed according to the formula: Tt24/48-Tt0 µm units, where t0, t24 and t48 represent the ear thickness before and 24 or 48 hours after challenge, respectively, in an individual […]. The results were expressed as the mean +/-S.E.M. The level of significance between means of the groups was obtained by Student's two-tailed t-test. Tables 1 and 2 show the results from 24 and 48 hours measurements, respectively, from a representative experiment with the L-form of diNAC. […]

[1] = Table 3, 24 h after challenge, 0.03 µmol/kg oral
[2] = Table 3, 24 h after challenge, 3.0 µmol/kg oral
[3] = Table 3, 48 h section, 0.03 µmol/kg oral
[4] = Table 3, 48 h section, 3.0 µmol/kg oral
[5] = 0.03 µmol/kg oral once daily Day 0 to Day 6
[6] = 0.30 µmol/kg oral once daily Day 0 to Day 6
[7] = 3.0 µmol/kg oral once daily Day 0 to Day 6
[8] = 30.0 µmol/kg oral once daily Day 0 to Day 6

COC(=O)[C@H](CSSC[C@H](NC(=O)CC(C)C)C(=O)OC)NC(=O)CC(C)C [diMeVAL, N,N'-diisovalerylcystine dimethyl ester]
immunostimulating effect in the DTH reaction in the mouse ear (result in words): highly potent and efficient immunostimulating agents

CCOC(=O)[C@H](CSSC[C@H](NC(C)=O)C(=O)OCC)NC(C)=O [diEtNAC, N,N'-diacetylcystine diethyl ester]
Diff Tt24-Tt0 [1]: 11.75 µm units | Diff Tt24-Tt0 [2]: 13.05 µm units | Diff Tt24-Tt0 [3]: 13.15 µm units | Diff Tt24-Tt0 [4]: 13.20 µm units | immunostimulating effect in the DTH reaction in the mouse ear (result in words): highly potent and efficient immunostimulating agents

CC(C)CC(=O)N[C@@H](CSSC[C@H](NC(=O)CC(C)C)C(=O)O)C(=O)O [diVAL, N,N'-diisovalerylcystine]
immunostimulating effect in the DTH reaction in the mouse ear (result in words): highly potent and efficient immunostimulating agents

CCCCCCCC(=O)N[C@@H](CSSC[C@H](NC(=O)CCCCCCC)C(=O)O)C(=O)O [diCAP, N,N'-dicaprylylcystine]
immunostimulating effect in the DTH reaction in the mouse ear (result in words): highly potent and efficient immunostimulating agents

COC(=O)[C@H](CSSC[C@H](NC(C)=O)C(=O)OC)NC(C)=O [diMeNAC, N,N'-diacetylcystine dimethyl ester]
Diff Tt24-Tt0 [1]: 18.00 µm units | Diff Tt24-Tt0 [2]: 12.55 µm units | Diff Tt24-Tt0 [3]: 12.85 µm units | Diff Tt24-Tt0 [4]: 13.35 µm units | immunostimulating effect in the DTH reaction in the mouse ear (result in words): highly potent and efficient immunostimulating agents

CC(=O)N[C@@H](CSSC[C@H](NC(C)=O)C(=O)O)C(=O)O [L-diNAC, N,N'-diacetyl-L-cystine]
Diff. Tt24-Tt0 [5]: 13.75 µm units | Diff. Tt24-Tt0 [6]: 15.70 µm units | Diff. Tt24-Tt0 [7]: 18.30 µm units | Diff. Tt24-Tt0 [8]: 20.67 µm units | Diff Tt48-Tt0 [5]: 11.65 µm units | Diff Tt48-Tt0 [6]: 12.65 µm units | Diff Tt48-Tt0 [7]: 14.95 µm units | Diff Tt48-Tt0 [8]: 13.63 µm units | ear thickness after oral administration (result in words, 24 and 48 hours after challenge, oral): significant increase of the ear thickness in a concentration-response manner

CCCC(=O)N[C@@H](CSSC[C@H](NC(=O)CCC)C(=O)O)C(=O)O [diBUT, N,N' - dibutyrylcystine]
immunostimulating effect in the DTH reaction in the mouse ear (result in words): highly potent and efficient immunostimulating agents

CC(=O)N[C@@H](CSSC[C@H](NC(C)=O)C(=O)O)C(=O)O [diNAC, N,N'-diacetylcystine]
immunostimulating effect in the DTH reaction in the mouse ear (result in words): highly potent and efficient immunostimulating agents
